Measurements taken from patent publication US20240208895A1, “BRANCHED-CHAIN AMINO ACID DERIVATIVES TO TREAT DISEASE” (INTRABIO LTD., priority 2021, published 2024).

Target: T1, human transporter MCT1 (Homo sapiens, UniProt P53985)
T1 construct: expressed in transfected cells; host or cells: MDCK-II
T1 sequence (P53985 1-500): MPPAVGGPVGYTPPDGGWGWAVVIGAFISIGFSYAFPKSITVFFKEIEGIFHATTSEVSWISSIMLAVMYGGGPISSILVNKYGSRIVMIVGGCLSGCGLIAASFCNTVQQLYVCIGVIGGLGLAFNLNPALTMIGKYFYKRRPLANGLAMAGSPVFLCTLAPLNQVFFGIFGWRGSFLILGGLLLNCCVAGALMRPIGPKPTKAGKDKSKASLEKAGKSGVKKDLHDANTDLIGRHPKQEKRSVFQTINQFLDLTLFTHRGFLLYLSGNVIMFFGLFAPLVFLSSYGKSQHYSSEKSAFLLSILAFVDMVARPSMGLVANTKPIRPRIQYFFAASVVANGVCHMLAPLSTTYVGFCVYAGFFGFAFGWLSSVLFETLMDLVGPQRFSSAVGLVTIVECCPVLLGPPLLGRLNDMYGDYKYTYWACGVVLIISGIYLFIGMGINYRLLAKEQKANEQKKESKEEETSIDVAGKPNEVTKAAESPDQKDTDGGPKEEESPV
Assay: Human MCT1-mediated transport in MDCK-II cells (Example 9)
Format: cell-based
Conditions: MDCK-II cells expressing human MCT1, pH 5.5, 1 minute, normalized to Vmax of thiophene-2-glyoxylic acid
Experimental: Representative Compounds of the Disclosure are tested in (i) MDCK-II cells expressing human transporter MCT1; and (ii) MDCK-II cells transfected with a control vector (GFP) as control cells for human transporter MCT1. 2-Thiophene-glyoxylic acid (TPGA) is the positive control for transport.
• 1. A stock solution is prepared with the test article (Compound of the Disclosure) in DMSO or in HBSS-Bis-Tris. • 2. Final assay solutions of probe substrate or test article contain 0.5% (v/v) DMSO (vehicle control). • 3. Test article concentrations are 10 μM, 30 μM, 100 μM, 300 μM, 1000 μM, 3000 μM, and 10000 μM.
MDCK-II cells are maintained in DMEM with low glucose and 10% FBS. Cells passages up to 40 are seeded at 60K±10K cells/well on 96-well, transwell membrane plates approximately 24 hours before transfection. Transport assays are carried out approximately 48 hours after transfection.
• 1. Test system: • a. Test system: 96-well cell culture plate with wells containing a monolayer of MDCK-II cells grown on a permeable support and a corresponding 96-well receiver tray. Cell plates are maintained at 37° C. in 5% CO2 atmosphere prior to initiation of the transport experiment. • b. Pre-incubation is conducted in HBSS, pH 7.4. Transport experiments are conducted in HBSS with Bis-Tris, pH 5.5, without phenol red. Pre-incubation and incubation are conducted at ambient temperatures. • c. Each condition is run in triplicate wells. • d. […] The result from the control cells is used to correct for substrate permeation by routes other than the transporter being investigated in the study. • 2. Prepare the 96-well plate as follows: • a. Wash the basal side of the culture plate insert with HBSS three times. After the final wash, blot the basal side of the wells and keep this side dry. • b. Wash the culture plate wells with HBSS three times. The wells of the culture plate serve as the apical compartment. • 3. Aspirate the final wash from the culture plate. The wells of the culture plate serve as the apical compartment. Add 100 μL of HBSS pH 7.4 pre-incubation buffer containing vehicle to the apical compartments. • 4. Incubate the plates with orbital shaking at approximately 60 RPM for the pre-incubation time specified in Table 1 of this protocol. • 5. Aspirate the pre-incubation buffer from the apical compartment of the plates. Add 100 μL of the experimental buffer that is prepared as follows and maintained at ambient temperatures. • a. For the probe substrate transport assay, the HBSS with Bis-Tris, pH 5.5 in each well contains the probe substrate at 500 μM (positive control for transport) and vehicle control. • b. For the test article assays, the HBSS with Bis-Tris, pH 5.5 in each well contains the test article at 10 μM, 30 μM, 100 μM, 300 μM, 1000 μM, 3000 μM, and 10000 μM. • 6. Incubate at ambient temperature with orbital shaking at approximately 60 RPM for the incubation time of 1 minute. • 7. […]
• 1. The amount of radiolabeled probe substrate will be quantified with radiometric detection on a 1450 Microbeta (Perkin-Elmer). • 2. The amount of non-radiolabeled probe substrate or test article will be quantified by LC-MS/MS. • 3. […] For uptake assays, the net transporter-mediated uptake rate (V) of the substrate by each SLC transporter will be calculated as follows:
[formula] • 5. For transport kinetics assessment, Km and Vmax will be calculated by non-linear regression using the Michaelis-Menten equation. • 6. […]

CC(=O)N[C@@H](CC(C)C)C(=O)O [N-acetyl-L-leucine]
uptake mediated by MCT1: transported
